Assay results: patent US11040033B2 (Gilead Sciences, Inc., priority 2017, dated 2021)

Target: T1, IDO1 (Homo sapiens, UniProt P14902)
T1 construct: HeLa cells were treated with a test compound in the presence of IFNγ, which induces IDO1 expression; endogenous in cells; host or cells: H1-HeLa cells (ATCC #CRL-1958), induced with IFNγ
Test: Cell-based (HeLa) assay for measurement of IDO1 inhibition (kynurenine levels in supernatant after IFNγ induction)
Conditions: H1-HeLa cells, IFNγ-induced IDO1, 48 hour incubation, kynurenine absorbance at 480 nm; geometric mean of a minimum of four determinations
Experimental: To measure IDO1 inhibition in tissue culture, HeLa cells were treated with a test compound in the presence of IFNγ, which induces IDO1 expression. Following incubation, cell supernatants were assayed for kynurenine levels, an indicator of IDO1 activity.
H1-HeLa cells (ATCC #CRL-1958) were seeded in 384-well plates (Greiner #82051-282) at a volume […] (Corning #15-018-CM) supplemented with 10% FBS (Corning #35-011-CV) and 1% P/S/G (Corning #30-009-CL) at a density of 1,250 cells/well and incubated overnight at 37° C., 5% CO2/100% humidity. The following day, the test compounds were added in DMSO (0.5% final) at various concentrations, and IDO1 was inducibly expressed by the addition of 50 uL/well of 50 ng/mL of INFγ(Peprotech #300-02) in cell plating media. As a positive control, 50 uL of the cell plating media without IFNγ was added to several wells. Following a 48 hour incubation, the plates were spun down at 1,200 RPM for 5 min at 10° C. 65 μL/well of the supernatant was then transferred to new 384-well plates (Thermo #262160) that contained 10 uL/well of 30% TCA (Sigma #T0699), and the plates were sealed and incubated at 60° C. for 30 min. The plates were then centrifuged for 15 min at 2,000 RPM at 10° C. 40 μL/well of the supernatant was transferred to new 384-well plates (Thermo #262160) and was reacted with 40 μL/well of 2% (w/v) p-dimethylaminobenzaldehyde (Sigma #156417) in glacial acetic acid (Sigma #A6283). The reaction was incubated at room temperature for 10 min and absorbance at 480 nm was read using a PerkinElmer Envision plate reader.
Data in Table 1 were normalized based on positive (−IFNγ) and negative (+IFNγ) controls and EC50 values were calculated from the fit of the dose-response curves to a four-parameter equation. All EC50 values represent geometric mean values of a minimum of four determinations. These assays generally produced results within 2-fold of the reported mean.

T1 sequence (P14902 whole entry): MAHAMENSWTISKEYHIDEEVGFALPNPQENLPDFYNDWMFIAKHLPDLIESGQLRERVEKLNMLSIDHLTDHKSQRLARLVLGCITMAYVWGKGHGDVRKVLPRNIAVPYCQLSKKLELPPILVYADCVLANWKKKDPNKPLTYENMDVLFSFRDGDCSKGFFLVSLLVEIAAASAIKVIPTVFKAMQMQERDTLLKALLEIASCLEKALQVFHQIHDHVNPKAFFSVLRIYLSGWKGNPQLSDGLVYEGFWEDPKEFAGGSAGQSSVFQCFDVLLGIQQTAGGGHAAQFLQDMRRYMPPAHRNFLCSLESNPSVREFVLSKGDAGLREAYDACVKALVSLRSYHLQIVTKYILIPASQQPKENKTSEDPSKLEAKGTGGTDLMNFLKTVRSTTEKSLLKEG

EC50 | SMILES
13.3 nM | Cc1ncc(-c2cccn3c(-c4cccc(F)c4Cl)ncc23)cc1C(=O)Nc1ccc(F)cc1 [Example 87, 5-(3-(2-chloro-3-fluorophenyl)imidazo[1,5-a]pyridin-8-yl)-N-(4-fluorophenyl)-2-methylnicotinamide]
67.2 nM | Fc1ccc2[nH]c(-c3cc(-c4cccn5c(-c6cccc(F)c6F)ncc45)ccc3Cl)nc2c1 [Example 96, 2-(2-chloro-5-(3-(2,3-difluorophenyl)imidazo[1,5-a]pyridin-8-yl)phenyl)-5-fluoro-1H-benzo[d]imidazole]
199 nM | Cc1ncc(-c2cccn3c(-c4ncccc4F)ncc23)cc1C(=O)Nc1ccc(F)cc1 [Example 19, N-(4-fluorophenyl)-5-(3-(3-fluoropyridin-2-yl)imidazo[1,5-a]pyridin-8-yl)-2-methylnicotinamide]
15.9 nM | O=C(Nc1ccc(F)cc1)c1cc(-c2cccn3c(-c4cccc(F)c4F)ncc23)ccc1C(F)(F)F [Example 48, 5-(3-(2,3-difluorophenyl)imidazo[1,5-a]pyridin-8-yl)-N-(4-fluorophenyl)-2-(trifluoromethyl)benzamide]
683 nM | Cc1ccc(-c2cccn3c(-c4cccnc4)nnc23)cc1C(=O)Nc1ccc(F)cc1 [Example 11, N-(4-fluorophenyl)-2-methyl-5-(3-(pyridin-3-yl)-[1,2,4]triazolo[4,3-a]pyridin-8-yl)benzamide]
5340 nM | Cc1ccc(-c2cccn3c(-c4ccccc4C(N)=O)nnc23)cc1C(=O)Nc1ccc(F)cc1 [Example 1, 5-(3-(2-carbamoylphenyl)-[1,2,4]triazolo[4,3-a]pyridin-8-yl)-N-(4-fluorophenyl)-2-methylbenzamide]
712 nM | N#Cc1ccnc(-c2ncc3c(-c4ccc(C(F)(F)F)c(C(=O)Nc5ccc(F)cc5)c4)cccn23)c1 [Example 10, 5-(3-(4-cyanopyridin-2-yl)imidazo[1,5-a]pyridin-8-yl)-N-(4-fluorophenyl)-2-(trifluoromethyl)benzamide]
31.1 nM | O=C(Nc1ccc(F)cc1)c1cc(-c2cccn3c(-c4ccccn4)ncc23)ccc1C(F)(F)F [Example 33, N-(4-fluorophenyl)-5-(3-(pyridin-2-yl)imidazo[1,5-a]pyridin-8-yl)-2-(trifluoromethyl)benzamide]
57.6 nM | Cc1ncc(-c2cccn3c(-c4cccc(F)c4F)ncc23)cc1C(=O)Nc1ccncc1 [Example 69, 5-(3-(2,3-difluorophenyl)imidazo[1,5-a]pyridin-8-yl)-2-methyl-N-(pyridin-4-yl)nicotinamide]
29.4 nM | Cc1ccc(-c2cccn3c(-c4cccc(F)c4F)ncc23)cc1C(=O)Nc1ccc(F)cc1 [Example 34, 5-(3-(2,3-difluorophenyl)imidazo[1,5-a]pyridin-8-yl)-N-(4-fluorophenyl)-2-methylbenzamide]
399 nM | Cc1cnc(-c2cccn3c(-c4cccc(F)c4F)ncc23)nc1C(=O)Nc1ccc(F)cc1 [Example 65, 2-(3-(2,3-difluorophenyl)imidazo[1,5-a]pyridin-8-yl)-N-(4-fluorophenyl)-5-methylpyrimidine-4-carboxamide]
250 nM | Cc1ncc(-c2cccn3c(C4CCCCC4)ncc23)cc1C(=O)Nc1ccc(F)cc1 [Example 93, 5-(3-cyclohexylimidazo[1,5-a]pyridin-8-yl)-N-(4-fluorophenyl)-2-methylnicotinamide]
3840 nM | Cc1nnc(-c2ncc3c(-c4ccc(C)c(C(=O)Nc5ccc(F)cc5)c4)cccn23)o1 [Example 2, N-(4-fluorophenyl)-2-methyl-5-(3-(5-methyl-1,3,4-oxadiazol-2-yl)imidazo[1,5-a]pyridin-8-yl)benzamide]
192 nM | Cc1ccc(-c2cccn3c(-c4cccc(F)c4F)nnc23)cc1C(=O)Nc1ccc(F)cc1 [Example 20, 5-(3-(2,3-difluorophenyl)-[1,2,4]triazolo[4,3-a]pyridin-8-yl)-N-(4-fluorophenyl)-2-methylbenzamide]
460 nM | Cc1ncc(-c2cccn3c(C4CCCC4)ncc23)cc1C(=O)Nc1ccc(F)cc1 [Example 74, 5-(3-cyclopentylimidazo[1,5-a]pyridin-8-yl)-N-(4-fluorophenyl)-2-methylnicotinamide]
16.4 nM | O=C(Nc1ccc(F)cc1)c1cc(-c2cccn3c(-c4ncccn4)ncc23)ccc1C(F)(F)F [Example 45]
101 nM | Cc1ncc(-c2cccn3c(-c4cccc(F)c4F)ncc23)cc1C(=O)Nc1ccc(F)c(F)c1 [Example 68]
34.9 nM | O=C(Nc1ccc(F)cc1)c1cc(-c2cccn3c(-c4cc[nH]n4)ncc23)ccc1C(F)(F)F [Example 32, 5-(3-(1H-pyrazol-3-yl)imidazo[1,5-a]pyridin-8-yl)-N-(4-fluorophenyl)-2-(trifluoromethyl)benzamide]
888 nM | Cc1ncc(-c2cccn3c(C4CCC4)ncc23)cc1C(=O)Nc1ccc(F)cc1 [Example 91, 5-(3-cyclobutylimidazo[1,5-a]pyridin-8-yl)-N-(4-fluorophenyl)-2-methylnicotinamide]
23.9 nM | [2H]c1c([2H])c(NC(=O)c2cc(-c3cccn4c(-c5cccc(F)c5F)ncc34)cnc2C)c([2H])c([2H])c1F [Example 73, 5-(3-(2,3-difluorophenyl)imidazo[1,5-a]pyridin-8-yl)-N-(4-fluorophenyl-2,3,5,6-d4)-2-methylnicotinamide]
19.8 nM | O=C(Nc1ccc(F)cc1)c1cc(-c2cccn3c(-c4cccc(F)c4F)ncc23)ccc1C(F)F [Example 41, 2-(difluoromethyl)-5-(3-(2,3-difluorophenyl)imidazo[1,5-a]pyridin-8-yl)-N-(4-fluorophenyl)benzamide]
64.9 nM | Cc1ncc(-c2cccn3c(-c4cccc(F)c4F)ncc23)cc1-c1nc2cc(F)ccc2[nH]1 [Example 97, 2-(5-(3-(2,3-difluorophenyl)imidazo[1,5-a]pyridin-8-yl)-2-methylpyridin-3-yl)-5-fluoro-1H-benzo[d]imidazole]
274 nM | N#Cc1cccnc1-c1ncc2c(-c3ccc(C(F)(F)F)c(C(=O)Nc4ccc(F)cc4)c3)cccn12 [Example 15, 5-(3-(3-cyanopyridin-2-yl)imidazo[1,5-a]pyridin-8-yl)-N-(4-fluorophenyl)-2-(trifluoromethyl)benzamide]
1220 nM | Cc1ccc(-c2cccn3c(-c4nnco4)ncc23)cc1C(=O)Nc1ccc(F)cc1 [Example 7]
895 nM | Cc1cc(-c2cnc(C)c(C(=O)Nc3ccc(F)cc3)c2)c2cnc(-c3cccc(F)c3F)n2c1 [Example 78, 5-(3-(2,3-difluorophenyl)-6-methylimidazo[1,5-a]pyridin-8-yl)-N-(4-fluorophenyl)-2-methylnicotinamide]
17.5 nM | O=C(Nc1ccc(F)cc1)c1cc(-c2cccn3c(-c4cccc(F)c4F)ncc23)cnc1C1CC1 [Example 82, 2-cyclopropyl-5-(3-(2,3-difluorophenyl)imidazo[1,5-a]pyridin-8-yl)-N-(4-fluorophenyl)nicotinamide]
273 nM | Cc1ncc(-c2cccn3c(-c4cccc(F)c4F)nc(Br)c23)cc1C(=O)Nc1ccc(F)cc1 [Example 92, 5-(1-bromo-3-(2,3-difluorophenyl)imidazo[1,5-a]pyridin-8-yl)-N-(4-fluorophenyl)-2-methylnicotinamide]
52 nM | O=C(Nc1ccc(F)cc1)c1nc(-c2cccn3c(-c4cccc(F)c4F)ncc23)ccc1Cl [Example 85]
